Experimental data published in the supplement of paper PMC11061612.

What was measured:
[1] = compound: C1CN(CCC1(C(=O)N[C@@H](CCO)C2=CC=C(C=C2)Cl)N)C3=NC=NC4=C3C=CN4 [Capivasertib]; settings: max 10 µM
Outline: (§1)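 Cancer cell lines were plated in 1536-well plates in 7.5 μl of DMEM/F12 or RPMI with 10% FBS and kept 24 hours at 37°C and 5% CO2 before 72 hours of dosing, with final DMSO typically 0.2%. CellTiter-Glo 2.0 luminescence measured viability, scaled between blank-well and DMSO-well means. Dose responses were fitted to a two-parameter logistic curve with a non-linear mixed effects model. This fit gives the single-agent IC50.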

[2] = compound: C=CCn1c(=O)c2cnc(Nc3ccc(N4CCN(C)CC4)cc3)nc2n1-c1cccc(C(C)(C)O)n1 [AZD1775]; settings: max 3 µM
Outline: as §1

[3] = compound: CC(=O)Nc1cccc(-n2c(=O)n(C3CC3)c(=O)c3c(Nc4ccc(I)cc4F)n(C)c(=O)c(C)c32)c1 [Trametinib]; settings: max 1 µM
Outline: as §1

[4] = compound: CC(=O)c1c(C)c2cnc(Nc3ccc(N4CCNCC4)cn3)nc2n(C2CCCC2)c1=O [Palbociclib]; settings: max 10 µM
Outline: as §1

[5] = compound: CC(C)n1c(=O)n(C)c2cnc3cc(F)c(-c4ccc(OCCCN5CCCCC5)nc4)cc3c21 [AZD1390]; settings: max 0.3 µM
Outline: as §1

[6] = compound: CC1(C)CCC(CN2CCN(c3ccc(C(=O)NS(=O)(=O)c4ccc(NCC5CCOCC5)c([N+](=O)[O-])c4)c(Oc4cnc5[nH]ccc5c4)c3)CC2)=C(c2ccc(Cl)cc2)C1 [Venetoclax]; settings: max 1 µM
Outline: as §1

[7] = compound: CC1=C(C(=CC=C1)Cl)NC(=O)C2=CN=C(S2)NC3=CC(=NC(=N3)C)N4CCN(CC4)CCO [Dasatinib]; settings: max 2 µM
Outline: as §1

[8] = compound: CC1=CN2[C@@H](C1)C=NC3=CC(=C(C=C3C2=O)OC)OCCCCCOC4=C(C=C5C(=C4)N=C[C@@H]6CC(=CN6C5=O)C)OC [SG3199]; settings: max 0.001 µM
Outline: as §1

[9] = compound: CCN(CCO)CCCOc1ccc2c(Nc3cc(CC(=O)Nc4cccc(F)c4)[nH]n3)ncnc2c1 [AZD2811]; settings: max 1 µM
Outline: as §1

[10] = compound: CCc1c2c(nc3ccc(O)cc13)-c1cc3c(c(=O)n1C2)COC(=O)[C@]3(O)CC [SN-38]; settings: max 0.3 µM
Outline: as §1

[11] = compound: CN(C)CCCOc1ccc(-c2ccc3ncc4c(c3c2)n(C2CCOCC2)c(=O)n4C)cn1 [AZD0156]; settings: max 3 µM
Outline: as §1

[12] = compound: CN(CC[C@H](CSC1=CC=CC=C1)NC2=C(C=C(C=C2)S(=O)(=O)NC(=O)C3=CC=C(C=C3)N4CCC(CC4)[C@H](C5=CC=CC=C5C6=CC=C(C=C6)Cl)O)S(=O)(=O)C(F)(F)F)CCO [AZD4320]; settings: max 1 µM
Outline: as §1

[13] = compound: COc1cc(Nc2ncc3c(n2)-c2ccc(Cl)cc2C(c2c(F)cccc2OC)=NC3)ccc1C(=O)O [Alisertib]; settings: max 10 µM
Outline: as §1

[14] = compound: COc1cc2ncnc(Nc3ccc(F)c(Cl)c3)c2cc1OCCCN1CCOCC1 [Gefitinib]; settings: max 10 µM
Outline: as §1

[15] = compound: COc1cccc(OCCCN)c1-c1cc(Nc2cnc(C#N)cn2)n[nH]1 [Prexasertib]; settings: max 1 µM
Outline: as §1

[16] = compound: COc1cccc2c1C(=O)c1c(O)c3c(c(O)c1C2=O)C[C@@](O)(C(=O)CO)C[C@@H]3O[C@H]1C[C@H](N)[C@H](O)[C@H](C)O1 [Doxorubicin]; settings: max 1 µM
Outline: as §1

[17] = compound: COc1nnc2ccc(N3CCC(c4ccc(OCCN5CCN(C)C(=O)[C@H]5C)cc4)CC3)nn12 [AZD5153]; settings: max 1 µM
Outline: as §1

[18] = compound: CS(=O)(=O)CCNCc1ccc(-c2ccc3ncnc(Nc4ccc(OCc5cccc(F)c5)c(Cl)c4)c3c2)o1 [Lapatinib]; settings: max 10 µM
Outline: as §1

[19] = compound: C[C@@H](Nc1cc(F)cc(F)c1)c1cc(C(=O)N(C)C)cc2c(=O)cc(N3CCOCC3)oc12 [AZD8186]; settings: max 3 µM
Outline: as §1

[20] = compound: C[C@@H](Oc1cc(-c2cnn(C3CCNCC3)c2)cnc1N)c1c(Cl)ccc(F)c1Cl [Crizotinib]; settings: max 10 µM
Outline: as §1

[21] = compound: C[C@@H](c1ccc2nccn2c1)n1nnc2ncc(-c3cnn(C)c3)nc21 [Savolitinib]; settings: max 1 µM
Outline: as §1

[22] = compound: C[C@@H]1COCCN1C2=NC(=NC(=C2)C3(CC3)[S@](=N)(=O)C)C4=C5C=CNC5=NC=C4 [AZD6738]; settings: max 10 µM
Outline: as §1

[23] = compound: Cc1c2c(nn1C)CSCc1cc(n(C)n1)CSc1cc(c3ccccc3c1)OCCCc1c(C(=O)O)n(C)c3c-2c(Cl)ccc13 [AZD5991]; settings: max 1 µM
Outline: as §1

[24] = compound: Cc1cc2ncnn2cc1Nc1ncc2c(n1)n(C1CCOCC1)c(=O)n2C [AZD7648]; settings: max 10 µM
Outline: as §1

[25] = compound: Cc1nc(-c2cn3c(n2)-c2ccc(-c4cnn(C(C)(C)C(N)=O)c4)cc2OCC3)n(C(C)C)n1 [Taselisib]; settings: max 10 µM
Outline: as §1

[26] = compound: Cn1cnc2c(F)c(Nc3ccc(Br)cc3Cl)c(C(=O)NOCCO)cc21 [Selumetinib]; settings: max 10 µM
Outline: as §1

[27] = compound: NC1(c2ccc(-c3nc4ccn5c(=O)[nH]nc5c4cc3-c3ccccc3)cc2)CCC1 [MK-2206]; settings: max 10 µM
Outline: as §1

[28] = compound: O=C(c1cc(Cc2n[nH]c(=O)c3ccccc23)ccc1F)N1CCN(C(=O)C2CC2)CC1 [Olaparib]; settings: max 10 µM
Outline: as §1

| Cell Line | IC50, cell viability 72 h [1] | IC50, cell viability 72 h [2] | IC50, cell viability 72 h [3] | IC50, cell viability 72 h [4] | IC50, cell viability 72 h [5] | IC50, cell viability 72 h [6] | IC50, cell viability 72 h [7] | IC50, cell viability 72 h [8] | IC50, cell viability 72 h [9] | IC50, cell viability 72 h [10] | IC50, cell viability 72 h [11] | IC50, cell viability 72 h [12] | IC50, cell viability 72 h [13] | IC50, cell viability 72 h [14] | IC50, cell viability 72 h [15] | IC50, cell viability 72 h [16] | IC50, cell viability 72 h [17] | IC50, cell viability 72 h [18] | IC50, cell viability 72 h [19] | IC50, cell viability 72 h [20] | IC50, cell viability 72 h [21] | IC50, cell viability 72 h [22] | IC50, cell viability 72 h [23] | IC50, cell viability 72 h [24] | IC50, cell viability 72 h [25] | IC50, cell viability 72 h [26] | IC50, cell viability 72 h [27] | IC50, cell viability 72 h [28] |
| --- | --- | --- | --- | --- | --- | --- | --- | --- | --- | --- | --- | --- | --- | --- | --- | --- | --- | --- | --- | --- | --- | --- | --- | --- | --- | --- | --- | --- |
| BFTC-909 (Kidney Carcinoma) | 6100 nM | 579 nM | > 1000 nM | > 10000 nM | > 300 nM | > 1000 nM | > 2000 nM | > 1 nM | > 1000 nM | 38.7 nM | > 3000 nM | > 1000 nM | 7720 nM | > 10000 nM | 24.7 nM | 616 nM | 909 nM | > 10000 nM | > 3000 nM | > 10000 nM | > 1000 nM | 3460 nM | > 1000 nM | > 10000 nM | 3930 nM | > 10000 nM | > 10000 nM | > 10000 nM |
| Hs-746T (Gastric Carcinoma) | > 10000 nM | 1440 nM | 254 nM | > 10000 nM | > 300 nM | > 1000 nM | > 2000 nM | > 1 nM | > 1000 nM | > 300 nM | > 3000 nM | > 1000 nM | > 10000 nM | > 10000 nM | 66.4 nM | > 1000 nM | 833 nM | > 10000 nM | > 3000 nM | 683 nM | 40.9 nM | 9890 nM | > 1000 nM | > 10000 nM | > 10000 nM | > 10000 nM |  | > 10000 nM |
| HuH-7 (Hepatocellular Carcinoma) | > 10000 nM | > 3000 nM | > 1000 nM | > 10000 nM | > 300 nM | > 1000 nM | > 2000 nM | > 1 nM | > 1000 nM | > 300 nM | > 3000 nM | > 1000 nM | > 10000 nM | > 10000 nM | > 1000 nM | > 1000 nM | > 1000 nM | > 10000 nM | > 3000 nM | > 10000 nM | > 1000 nM | > 10000 nM | > 1000 nM | > 10000 nM | > 10000 nM | > 10000 nM |  | > 10000 nM |
| KMRC-20 (Kidney Carcinoma) | > 10000 nM | 1290 nM | > 1000 nM | > 10000 nM | > 300 nM | > 1000 nM | 875 nM | > 1 nM | > 1000 nM | 32.8 nM | > 3000 nM | > 1000 nM | 6920 nM | > 10000 nM | 31.4 nM | > 1000 nM | > 1000 nM | > 10000 nM | > 3000 nM | > 10000 nM | > 1000 nM | > 10000 nM | > 1000 nM | > 10000 nM | > 10000 nM | > 10000 nM |  | > 10000 nM |
| L-428 (Hodgkin's Lymphoma) | > 10000 nM | 429 nM | > 1000 nM | > 10000 nM | > 300 nM | > 1000 nM | > 2000 nM | > 1 nM | > 1000 nM | 46.9 nM | > 3000 nM | 475 nM | > 10000 nM | > 10000 nM | 23.3 nM | 106 nM | 130 nM | > 10000 nM | > 3000 nM | > 10000 nM | > 1000 nM | 5400 nM | > 1000 nM | > 10000 nM | > 10000 nM | > 10000 nM |  | > 10000 nM |
| LCLC-97TM1 (Non-Small Cell Lung Carcinoma) | > 10000 nM | 1380 nM | 26.4 nM | > 10000 nM | > 300 nM | > 1000 nM | > 2000 nM | > 1 nM | > 1000 nM | 75.6 nM | > 3000 nM | > 1000 nM | 3440 nM | > 10000 nM | 28.3 nM | > 1000 nM | 153 nM | > 10000 nM | > 3000 nM | 4840 nM | > 1000 nM | 2280 nM | > 1000 nM | > 10000 nM | 3360 nM | 3190 nM |  | > 10000 nM |
